Source: ChEMBL document CHEMBL1949563, “1,3,4-Thiadiazole derivatives as selective inhibitors of iNOS versus nNOS: Synthesis and structure-activity dependence” (Eur J Med Chem, 2012)

Key:
[1] = biological target: Nitric oxide synthase 1 (Homo sapiens) (UniProt P29475); assay: Inhibition of nNOS assessed as conversion of L-[3H]arginine to L-[3H]-citrulline at 50 uM after 30 mins by scintillation counting
[2] = biological target: T1, Nitric oxide synthase, inducible (Homo sapiens, UniProt P35228); assay: Inhibition of iNOS assessed as conversion of L-[3H]arginine to L-[3H]-citrulline at 50 uM after 30 mins by scintillation counting
[3] = biological target: T1, Nitric oxide synthase, inducible; assay: Inhibition of iNOS assessed as conversion of L-[3H]arginine to L-[3H]-citrulline after 30 mins by scintillation counting

Sequence of Nitric oxide synthase 1 (Homo sapiens) (P29475 whole entry): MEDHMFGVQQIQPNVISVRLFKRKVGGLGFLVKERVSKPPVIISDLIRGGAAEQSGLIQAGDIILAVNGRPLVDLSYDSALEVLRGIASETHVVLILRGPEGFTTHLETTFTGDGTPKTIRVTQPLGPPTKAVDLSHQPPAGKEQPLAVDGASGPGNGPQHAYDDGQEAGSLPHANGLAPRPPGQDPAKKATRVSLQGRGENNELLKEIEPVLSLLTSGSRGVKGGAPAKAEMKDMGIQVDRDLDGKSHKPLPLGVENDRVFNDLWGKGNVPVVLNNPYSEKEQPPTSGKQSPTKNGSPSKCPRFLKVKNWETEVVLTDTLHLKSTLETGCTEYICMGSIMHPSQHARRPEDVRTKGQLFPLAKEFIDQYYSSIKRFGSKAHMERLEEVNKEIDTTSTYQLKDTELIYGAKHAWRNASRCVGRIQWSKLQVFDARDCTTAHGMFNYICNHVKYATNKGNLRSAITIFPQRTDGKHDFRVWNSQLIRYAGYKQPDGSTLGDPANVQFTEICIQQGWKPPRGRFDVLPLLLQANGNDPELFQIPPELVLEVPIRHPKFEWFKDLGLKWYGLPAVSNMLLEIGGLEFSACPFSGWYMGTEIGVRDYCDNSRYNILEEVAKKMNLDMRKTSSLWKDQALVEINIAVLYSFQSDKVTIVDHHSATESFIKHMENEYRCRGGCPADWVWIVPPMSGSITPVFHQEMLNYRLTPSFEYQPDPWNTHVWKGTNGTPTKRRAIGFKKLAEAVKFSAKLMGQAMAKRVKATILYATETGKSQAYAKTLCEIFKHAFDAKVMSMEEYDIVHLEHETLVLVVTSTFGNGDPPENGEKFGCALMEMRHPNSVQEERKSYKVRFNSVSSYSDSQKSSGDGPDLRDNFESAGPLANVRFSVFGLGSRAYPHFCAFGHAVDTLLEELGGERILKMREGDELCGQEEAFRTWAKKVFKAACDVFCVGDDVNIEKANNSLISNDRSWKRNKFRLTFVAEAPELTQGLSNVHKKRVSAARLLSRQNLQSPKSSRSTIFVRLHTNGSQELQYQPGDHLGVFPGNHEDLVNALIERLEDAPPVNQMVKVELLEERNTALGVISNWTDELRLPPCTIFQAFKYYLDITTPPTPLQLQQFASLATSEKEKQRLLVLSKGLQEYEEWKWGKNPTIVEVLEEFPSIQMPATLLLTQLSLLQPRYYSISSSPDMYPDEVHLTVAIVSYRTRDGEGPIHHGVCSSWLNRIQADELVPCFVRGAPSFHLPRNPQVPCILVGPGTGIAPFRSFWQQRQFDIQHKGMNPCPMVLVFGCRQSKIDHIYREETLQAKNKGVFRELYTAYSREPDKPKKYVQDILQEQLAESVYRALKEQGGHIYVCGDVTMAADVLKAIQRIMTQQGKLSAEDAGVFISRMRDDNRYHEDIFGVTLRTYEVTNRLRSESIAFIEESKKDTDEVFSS
T1 sequence (P35228 whole entry): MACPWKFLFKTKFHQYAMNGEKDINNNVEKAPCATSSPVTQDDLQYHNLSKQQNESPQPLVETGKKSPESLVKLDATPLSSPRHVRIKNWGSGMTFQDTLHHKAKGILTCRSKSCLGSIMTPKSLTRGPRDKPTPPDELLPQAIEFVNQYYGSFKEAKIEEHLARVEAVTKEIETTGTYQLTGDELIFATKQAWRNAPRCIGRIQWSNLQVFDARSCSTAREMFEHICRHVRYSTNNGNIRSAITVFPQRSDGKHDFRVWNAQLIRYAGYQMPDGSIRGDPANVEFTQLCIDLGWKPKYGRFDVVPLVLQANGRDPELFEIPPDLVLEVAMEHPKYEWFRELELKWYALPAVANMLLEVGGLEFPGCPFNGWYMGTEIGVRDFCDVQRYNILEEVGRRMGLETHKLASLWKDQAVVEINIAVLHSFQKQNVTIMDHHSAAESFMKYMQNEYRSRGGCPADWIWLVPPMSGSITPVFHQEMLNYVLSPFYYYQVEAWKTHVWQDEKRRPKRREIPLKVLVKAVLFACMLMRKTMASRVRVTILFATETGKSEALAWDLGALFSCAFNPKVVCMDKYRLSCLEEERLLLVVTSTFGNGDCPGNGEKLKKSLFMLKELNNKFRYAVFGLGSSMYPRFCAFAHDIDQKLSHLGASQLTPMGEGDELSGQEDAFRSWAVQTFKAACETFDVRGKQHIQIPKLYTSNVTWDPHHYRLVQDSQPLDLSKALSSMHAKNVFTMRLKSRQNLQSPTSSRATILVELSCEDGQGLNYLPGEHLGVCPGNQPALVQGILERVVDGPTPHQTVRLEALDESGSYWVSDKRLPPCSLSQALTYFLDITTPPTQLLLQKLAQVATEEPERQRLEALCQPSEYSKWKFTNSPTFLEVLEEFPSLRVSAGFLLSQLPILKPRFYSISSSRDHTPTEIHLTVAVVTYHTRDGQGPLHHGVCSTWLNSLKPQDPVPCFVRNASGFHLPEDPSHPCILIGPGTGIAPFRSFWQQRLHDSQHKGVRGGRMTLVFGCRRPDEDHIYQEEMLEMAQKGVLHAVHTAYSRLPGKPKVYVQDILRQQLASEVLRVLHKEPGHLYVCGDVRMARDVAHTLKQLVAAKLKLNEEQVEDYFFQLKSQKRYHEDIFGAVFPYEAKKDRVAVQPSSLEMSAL

SMILES	inhibition [1] [%]	inhibition [2] [%]	IC50 [3] [µM]
CC1(C)SC(c2cc(Cl)ccc2N)=NN1C(=O)c1ccccc1	23.6	20.8	–
COc1ccc(N)c(C2=NN(C(=O)c3ccccc3)C(C)(C)S2)c1	17.2	0	–
CCCCC(=O)N1N=C(c2cc(Cl)ccc2N)SC1(C)C	38	12.6	–
CCCCC(=O)N1N=C(c2ccccc2N)SC1(C)C	38	39	–
CCCC(=O)N1N=C(c2cc(Cl)ccc2N)SC1(C)C	27.7	66.2	–
CCC(=O)N1N=C(c2cc(Cl)ccc2N)SC1(C)C	18.3	1.07	–
CC1(C)SC(c2ccccc2N)=NN1C(=O)C1CCCCC1	6.8	28	–
CCCC(=O)N1N=C(c2cc(OC)ccc2N)SC1(C)C	9.58	91.1	29.6
COc1ccc(N)c(C2=NN(C(=O)C3CCC3)C(C)(C)S2)c1	13.7	57.8	–
COc1ccc(N)c(C2=NN(C(C)=O)C(C)(C)S2)c1	43.3	77.1	–
CCC(=O)N1N=C(c2ccccc2N)SC1(C)C	24.2	19.2	–
CC1(C)SC(c2cc(Cl)ccc2N)=NN1C(=O)C1CCC1	4.56	-4.65	–
CC(=O)N1N=C(c2cc(Cl)ccc2N)SC1(C)C	22.5	72.8	–
CC1(C)SC(c2ccccc2N)=NN1C(=O)C1CC1	7.32	93	34
CC1(C)SC(c2ccccc2N)=NN1C(=O)C1CCC1	2.98	46.9	–
COc1ccc(N)c(C2=NN(C(=O)C3CC3)C(C)(C)S2)c1	9.95	90	41
CCC(=O)N1N=C(c2cc(OC)ccc2N)SC1(C)C	8.85	73	–
CC1(C)SC(c2cc(Cl)ccc2N)=NN1C(=O)C1CCCC1	8.37	21.3	–
CC1(C)SC(c2cc(Cl)ccc2N)=NN1C(=O)C1CCCCC1	23.1	7.61	–
CC1(C)SC(c2ccccc2N)=NN1C(=O)c1ccccc1	42.4	39.8	–
CC1(C)SC(c2ccccc2N)=NN1C(=O)C1CCCC1	9.34	42.1	–
CCCC(=O)N1N=C(c2ccccc2N)SC1(C)C	17.5	35.2	–
COc1ccc(N)c(C2=NN(C(=O)C3CCCC3)C(C)(C)S2)c1	17.4	65	–
CC(=O)N1N=C(c2ccccc2N)SC1(C)C	13.3	22.9	–
CCCCC(=O)N1N=C(c2cc(OC)ccc2N)SC1(C)C	14.6	101	–
COc1ccc(N)c(C2=NN(C(=O)C3CCCCC3)C(C)(C)S2)c1	11.3	100	21.9
CC1(C)SC(c2cc(Cl)ccc2N)=NN1C(=O)C1CC1	21.9	23.2	–
